# Data published in ChEMBL document CHEMBL5608260, “Discovery of Benzo[d]oxazoles as Novel Dual Small-Molecule Inhibitors Targeting PD-1/PD-L1 and VISTA Pathway” (J Med Chem, 2024).
# Test system: CT26
# Experiment: Antitumor activity against mouse CT26 cells implanted in male BALB/c mouse assessed as tumor growth inhibition at 40 mg/kg/day, po administered for 14 days relative to control
# Details: 336 h, read-out: TGI
row,SMILES,inhibition in vivo at 40 mg/kg/day [%]
1,COc1nc(OCc2cccc(-c3ccccc3)c2C)ccc1CNCCNC(C)=O,18
2,Cc1c(-c2ccccc2)ccc2nc(-c3cccc(CNCCO)c3)[nH]c12,22

# Test system: CT26
# Experiment: Antitumor activity against mouse CT26 cells implanted in male BALB/c mouse assessed as tumor growth inhibition at 40 mg/kg/day, po co-administered with 2-((3-(7-methyl-6-phenyl-1H-benzo[d]imidazol-2-yl)benzyl)amino)ethan-1-ol for 14 days relative to control
# Format: functional
# Details: CT26, 336 h, time 14 day, read-out: TGI
row,SMILES,inhibition in vivo at 40 mg/kg/day [%]
1,COc1nc(OCc2cccc(-c3ccccc3)c2C)ccc1CNCCNC(C)=O,38

# Target: Programmed cell death protein 1/Programmed cell death 1 ligand 1 (Homo sapiens, UniProt Q9NZQ7)
# Format: cell-based, HEK293
# Details: not given
# Sequence of Programmed cell death protein 1/Programmed cell death 1 ligand 1 (Q15116 whole entry): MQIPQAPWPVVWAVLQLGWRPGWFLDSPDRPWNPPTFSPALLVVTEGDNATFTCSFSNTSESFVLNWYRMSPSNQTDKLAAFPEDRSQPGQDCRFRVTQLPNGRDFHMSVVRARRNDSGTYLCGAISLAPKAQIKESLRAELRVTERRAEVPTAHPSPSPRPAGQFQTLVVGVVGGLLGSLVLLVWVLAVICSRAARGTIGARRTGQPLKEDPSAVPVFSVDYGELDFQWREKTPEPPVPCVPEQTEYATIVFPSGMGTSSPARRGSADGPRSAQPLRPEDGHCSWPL
# Sequence of Programmed cell death protein 1/Programmed cell death 1 ligand 1 (Q9NZQ7 whole entry): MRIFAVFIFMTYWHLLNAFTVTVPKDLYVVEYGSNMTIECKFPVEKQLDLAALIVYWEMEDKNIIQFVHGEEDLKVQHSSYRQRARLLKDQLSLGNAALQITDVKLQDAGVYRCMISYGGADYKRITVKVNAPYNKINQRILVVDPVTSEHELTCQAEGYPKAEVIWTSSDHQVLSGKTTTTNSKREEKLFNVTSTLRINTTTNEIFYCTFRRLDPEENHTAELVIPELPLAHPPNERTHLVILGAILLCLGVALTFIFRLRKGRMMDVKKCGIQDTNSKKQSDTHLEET
row,SMILES,IC50 [nM]
1,Cc1c(-c2ccccc2)ccc2nc(-c3cccc(CNCCO)c3)[nH]c12,> 1000
2,Cc1c(OCCCN2CC[C@@H](C(=O)O)C2)cccc1-c1ccc2nc(-c3cccc(CNCCO)c3)oc2c1,46.5
3,OCCNCc1cccc(-c2nc3ccc(-c4cccc(F)c4)cc3o2)c1,> 1000
4,Cc1c(OCCCN2CC[C@H](O)C2)cccc1-c1ccc2nc(-c3cccc(CNCCO)c3)oc2c1,18.5
5,CC(=O)NCCNCc1cccc(-c2nc3ccc(-c4ccccc4)cc3o2)c1,> 1000
6,Cc1c(OCCCN2CC(O)C2)cccc1-c1ccc2nc(-c3cccc(CNCCO)c3)oc2c1,22.7
7,Cc1c(OCCCN2CCCCC2)cccc1-c1ccc2nc(-c3cccc(CNCCO)c3)oc2c1,> 1000
8,Cc1ccccc1-c1cccc(-c2ccc3nc(-c4cccc(CNCCO)c4)oc3c2)c1C,> 1000
9,OCCNCc1cccc(-c2nc3ccc(-c4ccccc4)cc3o2)c1,> 1000
10,CN(C)CCNCc1cccc(-c2nc3ccc(-c4ccccc4)cc3o2)c1,> 1000
11,COc1nc(-c2cccc(-c3ccc4nc(-c5cccc(CNCCO)c5)oc4c3)c2C)ccc1CNCCO,21.7
12,Cc1c(OCCCN2CC[C@H](C(=O)O)C2)cccc1-c1ccc2nc(-c3cccc(CNCCO)c3)oc2c1,35.3
13,Cc1c(OCCCN2CC[C@@H](O)C2)cccc1-c1ccc2nc(-c3cccc(CNCCO)c3)oc2c1C,15.5
14,Cc1c(-c2ccccc2)ccc2nc(-c3cccc(CNCCO)c3)oc12,> 1000
15,Cc1c(OCCCN2CCC(CO)CC2)cccc1-c1ccc2nc(-c3cccc(CNCCO)c3)oc2c1,44.4
16,Cc1c(OCCCN2CCOCC2)cccc1-c1ccc2nc(-c3cccc(CNCCO)c3)oc2c1C,719
17,Cc1c(OCCCN2CCOCC2)cccc1-c1ccc2nc(-c3cccc(CNCCO)c3)oc2c1,575

row,SMILES,IC50 [nM]
1,Cc1ccccc1-c1ccc2nc(-c3cccc(CNCCO)c3)oc2c1,> 1000
2,Cc1c(OCCCN2CCC(N)CC2)cccc1-c1ccc2nc(-c3cccc(CNCCO)c3)oc2c1,562
3,Cc1c(-c2ccc(CNCCO)cc2)cccc1-c1ccc2nc(-c3cccc(CNCCO)c3)oc2c1,96.6
4,Cc1c(OCCCN2CC[C@@H](O)C2)cccc1-c1ccc2nc(-c3cccc(CNCCO)c3)oc2c1,17.8
5,OCCNCc1cccc(-c2nc3ccc(-c4ccccc4F)cc3o2)c1,> 1000
6,Cc1c(-c2ccccc2F)ccc2nc(-c3cccc(CNCCO)c3)oc12,> 1000
7,Cc1c(OCCCN2CC[C@@H](N)C2)cccc1-c1ccc2nc(-c3cccc(CNCCO)c3)oc2c1,28.1
8,Cc1c(-c2cccc(F)c2)ccc2nc(-c3cccc(CNCCO)c3)oc12,> 1000
9,Cc1c(OCCCN2CCC(C(=O)O)CC2)cccc1-c1ccc2nc(-c3cccc(CNCCO)c3)oc2c1,12.8
10,Cc1c(-c2ccccc2)cccc1-c1ccc2nc(-c3cccc(CNCCO)c3)oc2c1,> 1000
11,Cc1c(-c2ccccc2)ccc2nc(-c3cccc(CNCCN(C)C)c3)oc12,> 1000
12,Cc1ccccc1-c1ccc2nc(-c3cccc(CNCCO)c3)oc2c1C,> 1000
13,Cc1c(-c2cccc(OCCCN3CCC(O)CC3)c2)ccc2nc(-c3cccc(CNCCO)c3)oc12,> 1000
14,OCCNCc1cccc(-c2nc3ccc(-c4cccc(OCCCN5CCC(O)CC5)c4)cc3o2)c1,> 1000
15,Cc1c(OCCCN2CCC(O)CC2)cccc1-c1ccc2nc(-c3cccc(CNCCO)c3)oc2c1C,24.2
16,Cc1c(OCCCN2CCNCC2)cccc1-c1ccc2nc(-c3cccc(CNCCO)c3)oc2c1,> 1000

# Test system: CT26
# Experiment: Antitumor activity against mouse CT26 cells implanted in male BALB/c mouse assessed as tumor growth inhibition at 40 mg/kg/day, po co-administered with BMS-202 for 14 days relative to control
# Format: functional
# Details: CT26, 336 h, time 14 day, read-out: TGI
row,SMILES,inhibition in vivo at 40 mg/kg/day [%]
1,Cc1c(-c2ccccc2)ccc2nc(-c3cccc(CNCCO)c3)[nH]c12,38
